Assay results from publication PMC7419465, “Response and Adherence to Nilotinib in Daily practice (RAND study): an in-depth observational study of chronic myeloid leukemia patients treated with nilotinib” (European Journal of Clinical Pharmacology, 2020).
Several values for one entry are separate records, joined by “and”; a condition that tells them apart may be missing. Identical values can stand only once. Like-named read-outs stand apart in the source and are kept apart here.

Assays:
[1] = Patient-reported side effects of nilotinib (questionnaire, 5-point Likert scale); type: in vivo, CP-CML patients
Excerpt: At study entry, patients completed a self-administered composite questionnaire including demographic characteristics (date of birth, gender, education, living status, and working status), use of St. John’s wort, use of grapefruit (juice), quality of life (Short Form-12 Health Survey [SF-12]), side effects, and beliefs about medication in general (Beliefs about Medicines Questionnaire [BMQ]-General) and specifically about nilotinib (BMQ-Specific). The questionnaire at 3, 6, and 12 months also included the MARS-5 and questions on nilotinib intake in relation to food intake, use of tools to prevent forgetting, illness perception (Brief Illness Perception Questionnaire [Brief IPQ]), and information satisfaction (Satisfaction with Information about Medicines Scale [SIMS])[51, 52]. Education was assessed as the highest level completed, and dichotomized into higher education (higher general secondary education or above) and lower education. Living status was categorized as living alone or not living alone, and work status as having paid work or not. Questions on side effects were based on literature data and concerned specific nilotinib toxicities occurring in > 10% of patients (headache, nausea, rash, itching, myalgia, fatigue). Answers were scored on a 5-point Likert scale (0 = not at all to 4 = very much). Symptoms scored as “3 = a lot” or “4 = very much” were considered “severe.”

BCR-ABL transcript level [2] = tested on: BCR-ABL transcript level; design: method as in PMID 26837842; conditions: 5-year update of the ENESTnd trial, first-line; cited from earlier work
[3] = Nilotinib treatment discontinuation during the 12-month study period; type: in vivo, CP-CML patients; conditions: of 68 patients
Excerpt: In this multicenter prospective observational study, conducted between August 2013 and April 2017 in six Dutch hospitals, CP-CML patients using nilotinib were followed for 12 months. Initially, it was the aim only to include newly diagnosed CP-CML patients starting nilotinib treatment. […] The study was registered in the Netherlands Trial Register (NTR3992) and the protocol has been published previously.
Information on disease characteristics, medical history, co-medication, and nilotinib treatment was obtained from the patient’s medical file and pharmacy dispensing record.

[4] = Nilotinib trough plasma concentration (Cmin) from dried blood spot self-sampling; type: in vivo, CP-CML patients
Method: Blood sampling was performed by the patient at home by means of a validated dried blood spot (DBS) sampling method. Using the DBS, nilotinib plasma concentrations were calculated as previously reported. Patients were instructed to sample blood at predose at baseline (if already on nilotinib treatment), 3, 6, and 12 months from study entry. The time of blood sampling, time of last nilotinib intake, and body weight were recorded in patient diaries. Cmin samples were defined as those taken between 8 and 16 h after the prior dose.
Individual measures of exposure were obtained using averaged Cmin values for individual patients based on the measurements obtained at baseline, 3, 6, and 12 months. Intra-patient variability in nilotinib Cmin was analyzed in patients who had ≥ 2 analyzed samples available and expressed as the average coefficient of variation (CV%). Missing Cmin values were imputed with the mean of the observed Cmin values for the corresponding dose. Univariable linear regression was used to identify variables (one by one) related to nilotinib Cmin. GEE was used to identify whether the occurrence of side effects was related to observed nilotinib Cmin values (without imputation) obtained at baseline, 3, 6, and 12 months.

BCR-ABL transcript level [5] = assay: Molecular response (MMR, BCR-ABL transcript level ≤ 0.1% IS) to nilotinib treatment; type: in vivo, CP-CML patients
Method: The response was considered optimal when a MMR was achieved within 12 months of nilotinib treatment. MMR was defined as a BCR-ABL transcript level of ≤ 0.1% on the International Scale. For patients already on treatment at entry, the time until MMR was obtained retrospectively from their medical files.
Comparison of adherence (continuous) and Cmin values (either grouped into quartiles [Q1 vs. Q2–Q4] or based on a previously reported threshold concentration of 490 μg/L) among response groups (time to MMR after start of nilotinib treatment ≤ 12 months vs. > 12 months, stratified by line of treatment) was performed using Mann-Whitney tests and Fisher’s exact tests. Time to MMR was assessed using the Kaplan Meier method with logrank test. In these outcome analyses, the mean of each measure of adherence and Cmin values was used. For all analyses, a two-tailed significance level of 0.05 was used. p values below this level were considered statistically significant. All statistical analyses were performed using SPSS version 22 for Windows (IBM Corp, Armonk, NY, USA).

[6] = 42 patients with ≥ 2 analyzed samples
[7] = second/third-line nilotinib treatment

Compound: Cc1cn(-c2cc(NC(=O)c3ccc(C)c(Nc4nccc(-c5cccnc5)n4)c3)cc(C(F)(F)F)c2)cn1 [nilotinib]
- Fatigue, % of patients experiencing (any severity) [1]: About 75%
- Itching, % of patients reporting (any severity) [1]: 59%
- Myalgia, % of patients reporting (any severity) [1]: 54%
- Rash, % of patients reporting (any severity) [1]: 43%
- Fatigue, % mild ([1]; mild = a little bit/rather): 54.9%
- Headache, % mild ([1]; mild = a little bit/rather): 35.8%
- Itching, % mild ([1]; mild = a little bit/rather): 51.9%
- Myalgia, % mild ([1]; mild = a little bit/rather): 48.1%
- Nausea, % mild ([1]; mild = a little bit/rather): 20.4%
- Rash, % mild ([1]; mild = a little bit/rather): 35.2%
- Fatigue, % severe ([1]; severe = a lot/very much): 20% and 19.6%
- Headache, % severe ([1]; severe = a lot/very much): 1.9%
- Itching, % severe ([1]; severe = a lot/very much): 7.4%
- Myalgia, % severe ([1]; severe = a lot/very much): 6% and 5.8%
- Nausea, % severe ([1]; severe = a lot/very much): 1.9%
- Rash, % severe ([1]; severe = a lot/very much): 7.4%
- 1-year MMR rate (BCR-ABL transcript level [2]): 55%
- number of patients who discontinued nilotinib treatment due to progression [3]: 4
- number of patients who discontinued nilotinib treatment due to side effects [3]: 6
- Observed nilotinib Cmin, mean ± SD ([4]; 150 mg BID (n = 15 samples)): 835 ± 412 ng/mL
- Observed nilotinib Cmin, median (IQR) ([4]; 150 mg BID (n = 15 samples)): 656 (548–1042) μg/L
- Observed nilotinib Cmin, range ([4]; 150 mg BID (n = 15 samples)): 390 to 1793 ng/mL
- Observed nilotinib Cmin, mean ± SD ([4]; 300 mg BID (n = 85 samples)): 1021 ± 472 ng/mL
- Observed nilotinib Cmin, median (IQR) ([4]; 300 mg BID (n = 85 samples)): 954 (654–1274) μg/L
- Observed nilotinib Cmin, range ([4]; 300 mg BID (n = 85 samples)): 196 to 2413 ng/mL
- Observed nilotinib Cmin, mean ± SD ([4]; 300 mg QD (n = 6 samples)): 567 ± 110 ng/mL
- Observed nilotinib Cmin, median (IQR) ([4]; 300 mg QD (n = 6 samples)): 589 (450–658) μg/L
- Observed nilotinib Cmin, range ([4]; 300 mg QD (n = 6 samples)): 418 to 702 ng/mL
- Observed nilotinib Cmin, mean ± SD ([4]; 400 mg BID (n = 25 samples)): 1497 ± 597 ng/mL
- Observed nilotinib Cmin, median (IQR) ([4]; 400 mg BID (n = 25 samples)): 1253 (1054–2053) μg/L
- Observed nilotinib Cmin, range ([4]; 400 mg BID (n = 25 samples)): 342 to 2540 ng/mL
- Observed nilotinib Cmin, mean ± SD ([4]; 400 mg QD (n = 6 samples)): 536 ± 57 ng/mL
- Observed nilotinib Cmin, median (IQR) ([4]; 400 mg QD (n = 6 samples)): 552 (517–570) μg/L
- Observed nilotinib Cmin, range ([4]; 400 mg QD (n = 6 samples)): 422 to 574 ng/mL
- intra-patient variability, %CV in Cmin (mean ± SD) [4, 6]: 25 ± 19%
- intra-patient variability, %CV in Cmin, median [4, 6]: 20%
- intra-patient variability, %CV in Cmin, range [4, 6]: 1–91%
- patients with nilotinib Cmin generally above the therapeutic target ([4]; in vivo): 95%
- range of Cmin values below the threshold concentration of 490 μg/L ([4]; nine patients): 196 to 467 ng/mL
- patients with a Cmin below the threshold concentration of 490 μg/L at any time ([4]; nine patients of 56): 16%
- Cmin median (IQR) ([4]; patients reporting Fatigue: Mild (n = 72)): 974 (644–1373) μg/L
- Cmin median (IQR) ([4]; patients reporting Fatigue: None (n = 32)): 777 (561–1087) μg/L
- Cmin median (IQR) ([4]; patients reporting Fatigue: Severe (n = 25), p any .007, severe .023): 1160 (787–1468) μg/L
- Cmin median (IQR) ([4]; patients reporting Headache: Mild (n = 40)): 905 (625–1254) μg/L
- Cmin median (IQR) ([4]; patients reporting Headache: None (n = 91)): 970 (618–1288) μg/L
- Cmin median (IQR) ([4]; patients reporting Headache: Severe (n = 1)): 2413 µg/L
- Cmin median (IQR) ([4]; patients reporting Itching: Mild (n = 61)): 923 (740–1243) μg/L
- Cmin median (IQR) ([4]; patients reporting Itching: None (n = 61)): 954 (565–1283) μg/L
- Cmin median (IQR) ([4]; patients reporting Itching: Severe (n = 11), p severe .012): 1260 (1021–1800) μg/L
- Cmin median (IQR) ([4]; patients reporting Myalgia: Mild (n = 62)): 1031 (765–1380) μg/L
- Cmin median (IQR) ([4]; patients reporting Myalgia: None (n = 56)): 857 (574–1219) μg/L
- Cmin median (IQR) ([4]; patients reporting Myalgia: Severe (n = 12)): 840 (658–1553) μg/L
- Cmin median (IQR) ([4]; patients reporting Nausea: Mild (n = 27)): 1210 (750–1798) μg/L
- Cmin median (IQR) ([4]; patients reporting Nausea: None (n = 104)): 945 (615–1249) μg/L
- Cmin median (IQR) ([4]; patients reporting Nausea: Severe (n = 1)): 648 µg/L
- Cmin median (IQR) ([4]; patients reporting Rash: None (n = 75)): 964 (598–1338) μg/L
- Cmin median (IQR) ([4]; patients reporting Rash: Severe (n = 12)): 1157 (764–1540) μg/L
- 1-year MMR rate according to nilotinib Cmin (BCR-ABL transcript level [5]; All patients, Cmin quartile Q1 (< 635 μg/L)): 56% (5/9)
- 1-year MMR rate according to nilotinib Cmin (BCR-ABL transcript level [5]; All patients, Cmin quartile Q2 (Q2–Q3 635–< 1346 μg/L)): 88% (7/8)
- 1-year MMR rate according to nilotinib Cmin (BCR-ABL transcript level [5]; All patients, Cmin quartile Q3 (Q2–Q3 635–< 1346 μg/L)): 75% (12/16)
- 1-year MMR rate according to nilotinib Cmin (BCR-ABL transcript level [5]; All patients, Cmin quartile Q4 (≥ 1346 μg/L)): 30% (3/10)
- median time to MMR12 (BCR-ABL transcript level [5]; Cmin quartile Q1, n = 5): 6.4 months
- median time to MMR12 (BCR-ABL transcript level [5]; Cmin quartile Q2, n = 7): 6.7 months
- median time to MMR12 (BCR-ABL transcript level [5]; Cmin quartile Q3, n = 12): 4.3 months
- median time to MMR12 (BCR-ABL transcript level [5]; Cmin quartile Q4, n = 3): 2.8 months
- 1-year MMR rate according to nilotinib Cmin (BCR-ABL transcript level [5]; Subpopulation 1A/1B (1st line treatment), Q1 (< 635 μg/L)): 71% (5/7)
- 1-year MMR rate according to nilotinib Cmin (BCR-ABL transcript level [5]; Subpopulation 1A/1B (1st line treatment), Q2): 100% (5/5)
- 1-year MMR rate according to nilotinib Cmin (BCR-ABL transcript level [5]; Subpopulation 1A/1B (1st line treatment), Q3): 73% (8/11)
- 1-year MMR rate according to nilotinib Cmin (BCR-ABL transcript level [5]; Subpopulation 1A/1B (1st line treatment), Q4 (≥ 1346 μg/L)): 40% (2/5)
- 1-year MMR rate according to nilotinib Cmin (BCR-ABL transcript level [5]; Subpopulation 2A/2B (≥ 2nd line treatment), Q1 (< 635 μg/L)): 0% (0/2)
- 1-year MMR rate according to nilotinib Cmin (BCR-ABL transcript level [5]; Subpopulation 2A/2B (≥ 2nd line treatment), Q3): 80% (4/5)
- 1-year MMR rate according to nilotinib Cmin (BCR-ABL transcript level [5]; Subpopulation 2A/2B (≥ 2nd line treatment), Q4 (≥ 1346 μg/L)): 20% (1/5)
- mean time to MMR12 (BCR-ABL transcript level [5]; first-line nilotinib treatment): 5.9 ± 3.2 months
- median time to MMR12 (BCR-ABL transcript level [5]; first-line nilotinib treatment): 6.1 months
- time to MMR12, range (BCR-ABL transcript level [5]; first-line nilotinib treatment): 1.2–12.9 months
- 1-year MMR rate (BCR-ABL transcript level [5]; first-line nilotinib treatment (subpopulations 1A/1B), 20/28): 71%
- overall 1-year MMR rate (BCR-ABL transcript level [5]; range over lines of treatment): 47 to 71%
- mean time to MMR12 (BCR-ABL transcript level [5]; [7]): 5.8 ± 4.4 months
- median time to MMR12 (BCR-ABL transcript level [5]; [7]): 3.7 months
- time to MMR12, range (BCR-ABL transcript level [5]; [7]): 2.6–12.4 months
- 1-year MMR rate (BCR-ABL transcript level [5]; second/third-line nilotinib treatment (subpopulations 2A/2B), 7/15): 47%
